Common to all, as to format: physicochemical
The nature of data set [1]: Brown color index of solutions without riboflavin exposed to day light, Example 2. The following applies: for Color after exposure (in words): amino acid up to 32 mM, 7 days electromagnetic radiation; for Color after exposure (in words) / Brown color index in cell culture media (MEM) Day 7 / Brown color index in PBS Day 7: room temperature; for Brown color index in cell culture media (MEM) Day 7 / Brown color index in cell culture media (MEM) Day 0 / Brown color index in PBS Day 7 / Brown color index in PBS Day 0: without 0.013 mM riboflavin; for Brown color index in cell culture media (MEM) Day 7 / Brown color index in PBS Day 7: 7 days day light. On the procedure:
[…] These solutions were used to dissolve the dipeptides L-alanyl-L-tyrosine dihydrate (Ala-Tyr) and glycyl-L-tyrosine dihydrate (Gly-Tyr) as well as the amino acids L-tyrosine (Tyr), L-alanine (Ala), and glycine (Gly) at several concentrations to create solvent mixtures. In example 1, the dipeptides were tested at concentrations of 0.5 mM, 2.5 mM and 10 mM and Tyr at a concentration of 0.5 mM. PBS and MEM as well as 2.5 mM Trp dissolved in PBS and MEM were used as controls. In example 2, the dipeptides and Tyr were tested at a concentration of 2 mM, Ala and Gly at 32 mM, and the solvent (PBS or MEM) was used as control (“solvent background”).
(§1) The samples were exposed to electromagnetic radiation (day light) at room temperature for seven (example 2) as well as 14 days (example 1). A relative quantification of the brown color of the samples of example 1 was obtained by measuring the absorbance at 330 nm. The intensity of the brown color of samples of example 2 was determined by eye using a brown color index.
Other control solutions of PBS and MEM without riboflavin were colorless at day 0.

A short description of data set [2]: Brown color index of solutions with 0.013 mM riboflavin exposed to day light, Example 2. The conditions noted are these: for Color after exposure (in words): amino acid up to 32 mM, 7 days; for Brown color index in cell culture media (MEM) Day 7 / Brown color index in cell culture media (MEM) Day 0 / Brown color index in PBS Day 7 / Brown color index in PBS Day 0: with 0.013 mM riboflavin; for Brown color index in cell culture media (MEM) Day 7 / Brown color index in PBS Day 7: 7 days day light; for Brown colorization after exposure (in words): 2 mM, any type of aqueous solution used. The protocol:
Aqueous solutions of 2.5 mM L-Tryptophan (Trp) and 0.013 mM riboflavin were prepared in phosphate-buffered saline (D-PBS) as well as in Minimal Essential Medium (MEM). These solutions were used to dissolve the dipeptides L-alanyl-L-tyrosine dihydrate (Ala-Tyr) and glycyl-L-tyrosine dihydrate (Gly-Tyr) as well as the amino acids L-tyrosine (Tyr), L-alanine (Ala), and glycine (Gly) at several concentrations to create solvent mixtures. In example 1, the dipeptides were tested at concentrations of 0.5 mM, 2.5 mM and 10 mM and Tyr at a concentration of 0.5 mM. PBS and MEM as well as 2.5 mM Trp dissolved in PBS and MEM were used as controls. In example 2, the dipeptides and Tyr were tested at a concentration of 2 mM, Ala and Gly at 32 mM, and the solvent (PBS or MEM) was used as control (“solvent background”).
as §1
Aqueous solutions of PBS or MEM containing 0.013 mM riboflavin show a week fluorescent yellow-green color. Exposure to electromagnetic radiation at room temperature for seven days results in a brown colorization of the MEM solution, while the yellow-green color in PBS solutions vanished.

The nature of data set [3]: Brown colorization of tryptophan solutions exposed to day light (absorbance at 330 nm), Example 1. The following applies: room temperature; for Effect on brown colorization compared with Tyr: 0.5 mM Tyr-dipeptide versus 0.5 mM Tyr; for Effect on brown colorization compared with Tyr / Effect on brown colorization of Trp solution: day light; for Effect on brown colorization of Trp solution: 14 days. On the procedure: Aqueous solutions of 2.5 mM L-Tryptophan (Trp) and 0.013 mM riboflavin were prepared in phosphate-buffered saline (D-PBS) as well as in Minimal Essential Medium (MEM). These solutions were used to dissolve the dipeptides L-alanyl-L-tyrosine dihydrate (Ala-Tyr) and glycyl-L-tyrosine dihydrate (Gly-Tyr) as well as the amino acids L-tyrosine (Tyr), L-alanine (Ala), and glycine (Gly) at several concentrations to create solvent mixtures. […] PBS and MEM as well as 2.5 mM Trp dissolved in PBS and MEM were used as controls.
The intensity of the brown color was measured as absorbance difference at 330 nm.

The mark [4] stands for this setting: 7 days electromagnetic radiation, room temperature.
The mark [5] stands for this setting: addition of 0.5 mM to 2.5 mM Trp in PBS or MEM, absorbance at 330 nm.
[6] abbreviates: dipeptide concentrations of up to 10 mM, 2.5 mM Trp in PBS or MEM.

Structures are written as SMILES. Where a SMILES comes first, the peptide text is derived from it.

`C[C@H](N)C(=O)O` [Ala, L-alanine]: the “Color after exposure (in words)” value in data set [1] (MEM without riboflavin) was “week brown”; in data set [1] (PBS without riboflavin), “stayed colorless”; in data set [2] (MEM with 0.013 mM riboflavin), “normal brown”; in data set [2] (PBS with 0.013 mM riboflavin) it was “stayed colorless”. Also, the “Brown color index in cell culture media (MEM) Day 7” value (from here on “Brown color index … (MEM) Day 7”) in data set [1] (sample 32 mM) was 1 (week brown color); in data set [2] (sample 32 mM, room temperature) it was 3. In addition, the “Brown color index in cell culture media (MEM) Day 0” value (shortened to “Brown color index … (MEM) Day 0”) in data set [1] (sample 32 mM) and in data set [2] (sample 32 mM) was 0 (no brown color) throughout. The “Brown color index in PBS Day 7” value in data set [1] (sample 32 mM) is on record as 0 (no brown color); in data set [2] (sample 32 mM, room temperature) it was 0 (no brown color). Also, the “Brown color index in PBS Day 0” value in data set [1] (sample 32 mM) and in data set [2] (sample 32 mM) was 0 (no brown color) each time.
Regarding `C[C@H](N)C(=O)N[C@@H](Cc1ccc(O)cc1)C(=O)O.O.O` [Ala-Tyr, L-alanyl-L-tyrosine dihydrate] (H-Ala-Tyr-OH), in data set [1] (sample 32 mM), the “Brown color index … (MEM) Day 7” value is listed as 1 (week brown color), the “Brown color index … (MEM) Day 0” value is recorded as 0 (no brown color), the “Brown color index in PBS Day 7” value is on record as 0 (no brown color) and the “Brown color index in PBS Day 0” value was 0 (no brown color). The “Brown colorization after exposure (in words)” value in data set [2] (setting [4]) is on record as “normal brown color”. Besides, in data set [2] (sample 2 mM, room temperature), the “Brown color index … (MEM) Day 7” value is on record as 3 and the “Brown color index in PBS Day 7” value came to 3. In data set [2] (sample 2 mM), the “Brown color index … (MEM) Day 0” value is recorded as 0 (no brown color) and the “Brown color index in PBS Day 0” value is on record as 0 (no brown color). The “Effect on brown colorization compared with Tyr” value in data set [3] (2.5 mM Trp in PBS or MEM) was “the effect is greater”. For the same molecule, the “Effect on brown colorization of Trp solution” value (“Effect … of Trp solution” below) in data set [3] (setting [5]) is recorded as “reduce this colorization”. The “Effect … of Trp solution” value in data set [3] (setting [6]) is “further reduction or even completely prevented the change in color”.
With `NCC(=O)O` [Gly, glycine], the “Color after exposure (in words)” value was “week brown” in data set [1] (MEM without riboflavin), “stayed colorless” in data set [1] (PBS without riboflavin), “normal brown” in data set [2] (MEM with 0.013 mM riboflavin) and “stayed colorless” in data set [2] (PBS with 0.013 mM riboflavin). Besides, the “Brown color index … (MEM) Day 7” value is recorded as 1 (week brown color) in data set [1] (sample 32 mM) and 3 in data set [2] (sample 32 mM, room temperature). Moreover, the “Brown color index … (MEM) Day 0” value in data set [1] (sample 32 mM) and in data set [2] (sample 32 mM) was 0 (no brown color) each time. The “Brown color index in PBS Day 7” value is listed as 0 (no brown color) in data set [1] (sample 32 mM) and 0 (no brown color) in data set [2] (sample 32 mM, room temperature). Moreover, the “Brown color index in PBS Day 0” value in data set [1] (sample 32 mM) and in data set [2] (sample 32 mM) was 0 (no brown color) throughout.
Consider `NCC(=O)N[C@@H](Cc1ccc(O)cc1)C(=O)O.O.O` [Gly-Tyr, glycyl-L-tyrosine dihydrate] (H-Gly-Tyr-OH), for which, in data set [1] (sample 32 mM), the “Brown color index … (MEM) Day 7” value was 1 (week brown color), the “Brown color index … (MEM) Day 0” value is listed as 0 (no brown color), the “Brown color index in PBS Day 7” value is recorded as 0 (no brown color) and the “Brown color index in PBS Day 0” value is recorded as 0 (no brown color). For the same molecule, the “Brown colorization after exposure (in words)” value in data set [2] (setting [4]) is listed as “normal brown color”. Also, in data set [2] (sample 2 mM, room temperature), the “Brown color index … (MEM) Day 7” value is on record as 3 and the “Brown color index in PBS Day 7” value is on record as 3. In addition, in data set [2] (sample 2 mM), the “Brown color index … (MEM) Day 0” value is 0 (no brown color) and the “Brown color index in PBS Day 0” value is listed as 0 (no brown color). Further, the “Effect on brown colorization compared with Tyr” value in data set [3] (2.5 mM Trp in PBS or MEM) is reported as “the effect is greater”. For the same molecule, the “Effect … of Trp solution” value in data set [3] (setting [5]) is “reduce this colorization”. For the same molecule, the “Effect … of Trp solution” value in data set [3] (setting [6]) is recorded as “further reduction or even completely prevented the change in color”.
Consider `N[C@@H](Cc1c[nH]c2ccccc12)C(=O)O` [Trp, L-Tryptophan], for which, in data set [3] (2.5 mM Trp alone in PBS or MEM), the “Color change on exposure to electromagnetic radiation” value was “strong color change towards brown color”.
With `N[C@@H](Cc1ccc(O)cc1)C(=O)O` [Tyr, L-tyrosine], in data set [1] (sample 2 mM), the “Brown color index … (MEM) Day 7” value is 2 (moderate brown color), the “Brown color index … (MEM) Day 0” value is reported as 0 (no brown color), the “Brown color index in PBS Day 7” value is reported as 0 (no brown color) and the “Brown color index in PBS Day 0” value is reported as 0 (no brown color). In addition, in data set [2] (setting [4]), the “Brown colorization after exposure (in words)” value is given as “strong brown”. Moreover, in data set [2] (sample 2 mM, room temperature), the “Brown color index … (MEM) Day 7” value is given as 5 (strong brown color) and the “Brown color index in PBS Day 7” value was 5 (strong brown color). In data set [2] (sample 2 mM), the “Brown color index … (MEM) Day 0” value was 0 (no brown color) and the “Brown color index in PBS Day 0” value is listed as 0 (no brown color). Further, the “Effect … of Trp solution” value in data set [3] (setting [5]) is on record as “reduce this colorization”.
In the case of `Cc1cc2nc3c(=O)[nH]c(=O)nc-3n(C[C@H](O)[C@H](O)[C@H](O)CO)c2cc1C` [riboflavin, (−)-Riboflavin], the “Intensity of brown color (brown color index, in words)” value in data set [2] (0.013 mM riboflavin alone in MEM, 7 days electromagnetic radiation, room temperature) was “normal brown color”. The “Yellow-green color after exposure” value in data set [2] (0.013 mM riboflavin alone in PBS, 7 days electromagnetic radiation, room temperature) is reported as “vanished”.

These data come from patent publication US12703850B2, “Photostabilized compositions and a method for stabilizing photosensitive components” (Evonik Operations GmbH, priority 2022, dated 2026).
